In US12416002B2, “Analysis system for orthogonal access to and tagging of biomolecules in cellular compartments” (ILLUMINA, INC., priority 2016, dated 2025):

Assays:
nuclei [1] = test: Flow cytometry of bead capture of FAM-labeled transposed nuclear material (Table 2); format: cell-based
Isolated nuclei [2] = test: qPCR (Cq) of library yield, varying Pitstop-2 with Tn5 and TsTn5 transposases (Table 1B); format: cell-based, human
From the text: (§1) One Cq value roughly corresponds to two fold difference in DNA Input. […]
Additional experiments were run using varying concentrations of Pitstop-2 and the Tn5 and TsTn5 transposases.

[3] = system: K562 (human lymphoma cell line) nuclear content; test: Sequencing of transposition (ATAC-seq) libraries from K562 nuclear content (Example 5, FIG. 4); format: cell-based
From the text: DNA libraries were generated from K562 (human lymphoma cell line) nuclear content using methods as described in the preceding examples. […] As shown in FIG. 4A for the ATAC-seq profile over a portion of Chr 12, the libraries had targeted predominantly intergenic regions at all Pitstop-2 concentrations.

nuclei of K562 cells = test: Reverse transcription/quantitative PCR of cDNA synthesis from nuclear mRNA (Example 9, Table 4); format: cell-based, human
Procedure: Pitstop-2 treatment increases RNA output by improving cDNA synthesis from nuclear mRNA. K562 cells were lysed with 0.1% NP40. The nuclei and cytoplasm were separated and the nuclei were washed twice, then a reverse transcription/quantitative PCR protocol was performed (ThermoFisher Maxima HT RT kit, Kapa qPCR kit, RPLPO PCR primer) with (a) no additive, (b) 0.1% SDS, or (c) 30 μM Pitstop-2. The deltaCt between no reverse transcription and reverse transcription was used as the metric to report relative cDNA synthesis efficiency. Pitstop-2 treatment boosted cDNA synthesis from nuclei 4-5 fold over untreated nuclei (Table 4).

Mouse (3T3) nuclei = test: Single-cell ATAC-seq in droplets (Example 14, FIG. 11); format: cell-based
Procedure: Mouse (3T3) nuclei were treated with 0 μM, 30 μM, and 60 μM Pitstop-2 during cell lysis and transposition of nuclei. Pitstop-2 was used to open up nuclear pores and to allow increased transposition of open chromatin. A defined number of transposed nuclei set to ensure single nuclei occupancy was loaded into a QX200 Bio-Rad droplet generator with indexed beads designed to produce single-cell ATAC-seq libraries. Single cell libraries were PCR-amplified in droplets and then subjected to purification, and sequencing on a NextSeq® 550 Sequencing System.
Treatment of nuclei with Pitstop-2 allows more efficient transposition and increased unique coverage of open chromatin. In the presence of Pitstop-2, transposases target additional open chromatin regions outside of transcription start sites (TSS) (see FIG. 11B). […] Also observed were an alignment of pooled ATAC-seq reads generated with 0 μM, 30 μM, and 60 μM Pitstop-2 around GAPDH gene at chromosome 6 and an alignment of pooled ATAC-seq reads generated with 0 μM, 30 μM, and 60 μM Pitstop-2 around RPL10 gene at chromosome X (data not shown).

[4] = system: Isolated nuclei of K562 cells; test: Visualization of FAM-labeled transposome access to nuclei (Example 3, FIG. 3); format: cell-based, human; conditions: Pitstop-2 10 μM, 30 μM, 60 μM vs 2% DMSO control
Procedure: (§2) Using a standard cell culture protocol, 1×10^6 K562 cells (human lymphoma cell line) were collected from tissue culture flasks for tagmentation reaction. All cell pelleting/centrifugation steps were performed at 300×g for 3 min at 4° C. Freshly isolated cells were centrifuged and re-suspended in ice cold PBS (phosphate-buffered saline). The cells were pelleted again and incubated on ice while being suspended in 200 μL ice cold cell lysis buffer (Tris/NaCl/octylphenoxypolyethoxyethanol (IGEPAL CA-630 detergent)) for 5 min. Following this, nuclei were spun down for 3 min at 300×g, washed once with 200 of lysis buffer, and pelleted nuclei were transposed with Nextera Tn5 Transposase (TDE1) for 30 min at 55° C. in 1× Tagment DNA buffer (PN:15027866), supplemented with (a) Pitstop-2 in DMSO to yield 30 μM final Pitstop-2 concentration (test nuclei) or (b) 2% DMSO (control nuclei). Nuclei from each sample were pelleted and most of the supernatant was carefully removed.
The method of Example 1 was used to import FAM-labeled transposome complexes into nuclear compartments. Nuclei were isolated and treated as described in Example 1 using Nextera Tn5 transposase complexed with transposon sequence labeled during oligonucleotide synthesis at the 5′-end with FAM (6-FAM, Integrated DNA Technologies), and using the 2% DMSO control, and varying concentrations of Pitstop-2 (10 μM, 30 μM, and 60 μM).

unpurified nuclei = test: Yield of ATAC-seq library from unpurified nuclei (Example 8, Table 3); format: cell-based; conditions: for Yield (nM) 150-1000 bp: 3% DMSO
Procedure: The concentration of each library was determined on the BioAnalyzer between the library range of 150-1000 bps plotted for each Pitstop-2 concentration (FIG. 7A). Additional experiments run at varying Pitstop-2 concentrations (5, 10, 30, 50, 100, and 200 μM) produced enhanced library yield over libraries produced in the absence of Pitstop-2 as shown by spectrophotometric analysis (Table 3).

Isolated nuclei [5] = test: qPCR (Cq) of library yield from nuclei transposed with Nextera Tn5 in presence of Pitstop-2 (Example 4, Table 1A); format: cell-based, human; conditions: for Cq-Pitstop-2: 50,000 nuclei, 25 cy qPCR
Procedure: as §2, with “([…])” for “(a) Pitstop-2 in DMSO to yield 30 μM final Pitstop-2 concentration (test nuclei)”, “([…]).” for “(b) 2% DMSO (control nuclei).”
as §1

nuclei [6] = test: Agarose gel of indexed, amplified libraries of transposed nuclear DNA (Example 6, FIG. 5); format: cell-based; conditions: Pitstop-2 0, 10, 30, 60 μM
Procedure: Genomic DNA transposed with Nextera Tn5 Kit in the presence of Pitstop-2 (at concentrations of 0, 10, 30, and 60 μM) as described above was released from nuclei and was captured onto indexed beads containing oligonucleotide capture sequences. Bead-captured DNA was further gap-fill ligated to covalently link both strands of genomic DNA to common sequences (including unique indices) and amplified by PCR. […] Band intensity increases correlated with increases in Pitsthop-2 concentration. Corresponding DNA fragments covered by distinct number of nucleosomes of resulted libraries contained “nucleosomal banding,” indicating successful ATAC-seq tagmentation at regions free of nucleosomes.

O=C1N=C(NS(=O)(=O)c2cccc3ccccc23)SC1=Cc1ccc(Br)cc1 [Pitstop-2, N-[5-(4-bromobenzylidene)-4-oxo-4,5-dihydro-1,3-thiazol-2-yl]naphthalene-1-sulfonamide]
Mean (MFU), bead capture (nuclei [1]; Pitstop-2 10 μM): 1297 MFU
Mean (MFU), bead capture (nuclei [1]; Pitstop-2 30 μM): 1439 MFU
Mean (MFU), bead capture (nuclei [1]; Pitstop-2 60 μM): 1488 MFU
bead capture rates of FAM-labeled transposed libraries (nuclei [1]; Pitstop-2 treatment vs control pools): enhanced bead capture rates over control pools
Cq (Isolated nuclei [2]; Transposome Tn5, Pitstop 50 μM): 22.21
Cq (Isolated nuclei [2]; Transposome Tn5, Pitstop 100 μM): 23.17
Cq (Isolated nuclei [2]; Transposome Tn5, Pitstop 200 μM): 23.105
Cq (Isolated nuclei [2]; Transposome Tn5, Pitstop 300 μM): 23.67
Cq (Isolated nuclei [2]; Transposome TsTn5, Pitstop 50 μM): 18.32
Cq (Isolated nuclei [2]; Transposome TsTn5, Pitstop 100 μM): 18.52
Cq (Isolated nuclei [2]; Transposome TsTn5, Pitstop 200 μM): 18.55
Cq (Isolated nuclei [2]; Transposome TsTn5, Pitstop 300 μM): 19.475
ATAC-seq profile, normalized coverage over promoter and coding regions ([3]; 30 and 60 μM Pitstop-2, FIG. 4C): improved the ATAC-seq profile over controls
diversity and uniqueness of whole genome sequencing coverage ([3]; Pitstop-2-treated samples over controls, FIG. 4B): better diversity and uniqueness
access to chromatin regions (sequenced libraries) ([3]; Pitstop-2 treatment): enhanced access to transposase-accessible intergenic and open chromatin regions
boost of cDNA synthesis from nuclei over untreated nuclei (nuclei of K562 cells; 30 μM Pitstop-2): 4-5 fold
DeltaCt (no reverse transcription vs reverse transcription; relative cDNA synthesis efficiency) (nuclei of K562 cells; Nuclei +30 μM Pitstop-2): 7.19
ATAC-seq peak overlap (MACS-2), integrity of the assay (Mouse (3T3) nuclei; 0, 30, 60 μM Pitstop-2, FIG. 11C): did not change the overall integrity of the assay
total number of unique reads (Mouse (3T3) nuclei; increasing Pitstop-2 (0, 30, 60 μM), barcodes >1 k, >10 k, >100 k unique reads, FIG. 11A): increase in the total number of unique reads
influx of FAM-labeled transposomes into nuclei [4]: increased influx of FAM-labeled transposomes into the nuclear space
Yield (nM) 150-1000 bp (unpurified nuclei; Pitstop-2 5 μM): 7.3 nM
Yield (nM) 150-1000 bp (unpurified nuclei; Pitstop-2 10 μM): 9.3 nM
Yield (nM) 150-1000 bp (unpurified nuclei; Pitstop-2 20 μM): 20.6 nM
Yield (nM) 150-1000 bp (unpurified nuclei; Pitstop-2 50 μM): 23.7 nM
Yield (nM) 150-1000 bp (unpurified nuclei; Pitstop-2 100 μM): 15.7 nM
Yield (nM) 150-1000 bp (unpurified nuclei; Pitstop-2 200 μM): 8.7 nM
yield of ATAC-seq library on BioAnalyzer (unpurified nuclei; Pitstop-2 10 and 100 μM, FIG. 7A): increased the yield of an ATAC-seq library
library yield from intact nuclei vs untreated control (Isolated nuclei [5]; Pitstop-2 0 to 80 uM): increases library yield compared to the untreated control
ΔCq-Pitstop-2 vs. Control (Isolated nuclei [5]; Pitstop-2 5 uM vs 0.05% DMSO control): −0.2
Cq-Pitstop-2 (Isolated nuclei [5]; Pitstop-2 5 uM): 19.91
ΔCq-Pitstop-2 vs. Control (Isolated nuclei [5]; Pitstop-2 10 uM vs 0.10% DMSO control): −0.65
Cq-Pitstop-2 (Isolated nuclei [5]; Pitstop-2 10 uM): 20.00
ΔCq-Pitstop-2 vs. Control (Isolated nuclei [5]; Pitstop-2 20 uM vs 0.20% DMSO control): −1.48
Cq-Pitstop-2 (Isolated nuclei [5]; Pitstop-2 20 uM): 19.36
ΔCq-Pitstop-2 vs. Control (Isolated nuclei [5]; Pitstop-2 40 uM vs 0.40% DMSO control): −1.26
Cq-Pitstop-2 (Isolated nuclei [5]; Pitstop-2 40 uM): 19.94
ΔCq-Pitstop-2 vs. Control (Isolated nuclei [5]; Pitstop-2 80 uM vs 0.80% DMSO control): −2.06
Cq-Pitstop-2 (Isolated nuclei [5]; Pitstop-2 80 uM): 19.24
transposition yield by agarose gel electrophoresis (nuclei [6]): clear increase in transposition yield

CCCCCCCCCCCCOS(=O)(=O)[O-].[Na+] [SDS, sodium dodecyl sulfate]
DeltaCt (no reverse transcription vs reverse transcription; relative cDNA synthesis efficiency) (nuclei of K562 cells; Nuclei +0.1% SDS): 2.47
